In patent publication US20230149420A1, “ANTI-INFLAMMATORY IMMUNOENHANCER” (SCENT SCIENCE INTERNATIONAL INC., priority 2020, published 2023):

Columns and labels:
Format in all cases: in vivo, C57/BL6 mice
[1] = test system: basophils in the peripheral blood; test: number of basophils in peripheral blood, Siemens Advia 120 (Example 8); settings: 200 μl of 1% solution i.p., blood 16 hr later, vs saline
Procedure: About 3-month-old C57/BL6 mice were intraperitoneally injected with 200 μl of saline (control) or 1% solution of respective compounds (dissolved in saline). Blood was collected 16 hr later, and the number of basophils in the peripheral blood was measured using Siemens Advia 120.

[2] = test system: neutrophils in the whole blood cells; test: ratio of neutrophils in whole blood cells, Siemens Advia 120 (Examples 12, 13); settings: 200 μl of 1% solution i.p., blood 16 hr later, vs saline
Procedure: About 3-month-old C57/BL6 mice were intraperitoneally injected with 200 μl of saline (control) or 1% solution of respective compounds (dissolved in saline). Blood was collected 16 hr later, and the ratio of neutrophils in the whole blood cells was measured using Siemens Advia 120.

[3] = test system: basophils in the whole blood cells; test: ratio of basophils in whole blood cells, Siemens Advia 120 (Example 14); settings: 200 μl of 1% solution i.p., blood 16 hr later, vs saline
Procedure: About 3-month-old C57/BL6 mice were intraperitoneally injected with 200 μl of saline (control) or 1% solution of respective compounds (dissolved in saline). Blood was collected 16 hr later, and the ratio of basophils in the whole blood cells was measured using Siemens Advia 120.

[4] = test system: neutrophils in the peripheral blood; test: flow cytometry of neutrophils in peripheral blood, 2MT i.p./odor, corticosterone (Example 3); settings: intraperitoneal injection vs saline i.p., blood 16 hr later
Procedure: (§1) About 3-month-old C57/BL6 mice were intraperitoneally administered with 200 μl of saline (control) or 1% 2MT solution (dissolved in saline). Blood was collected 16 hr later, and the number of various leukocytes in the peripheral blood was measured by a flow cytometry method by peroxidase staining and a two-angle laser flow cytometry method. The ratios of neutrophils and monocytes in the peripheral blood under respective conditions that were clarified by the measurement are shown.

[5] = test system: monocytes in the peripheral blood; test: flow cytometry of monocytes in peripheral blood, 2MT i.p./odor, corticosterone (Example 3); settings: intraperitoneal injection vs saline i.p., blood 16 hr later
Procedure: as §1

[6] = test system: neutrophils in the peripheral blood; test: number of neutrophils in peripheral blood, Siemens Advia 120 (Examples 4, 5); settings: 200 μl of 1% solution i.p., blood 16 hr later, vs saline
Procedure: About 3-month-old C57/BL6 mice were intraperitoneally injected with 200 μl of saline (control) or 1% solution of respective compounds (dissolved in saline). Blood was collected 16 hr later, and the number of neutrophils in the peripheral blood was measured using Siemens Advia 120.

[7] = test system: monocytes in the whole blood cells; test: ratio of monocytes in whole blood cells, Siemens Advia 120 (Examples 10, 11); settings: 200 μl of 1% solution i.p., blood 16 hr later, vs saline
Procedure: About 3-month-old C57/BL6 mice were intraperitoneally injected with 200 μl of saline (control) or 1% solution of respective compounds (dissolved in saline). Blood was collected 16 hr later, and the ratio of monocytes in the whole blood cells was measured using Siemens Advia 120.
About 3-month-old C57/BL6 mice were intraperitoneally injected with 200 μl of saline (control) or 1% allyl isothiocyanate solution (dissolved in saline). Blood was collected 16 hr later, and the ratio of monocytes in the whole blood cells was measured using Siemens Advia 120.

[8] = test system: lymphocytes in the whole blood cells; test: ratio of lymphocytes in whole blood cells, Siemens Advia 120 (Example 15); settings: 1% solution i.p., blood 16 hr later, vs saline
Procedure: About 3-month-old C57/BL6 mice were intraperitoneally injected with […] saline (control) or 1% solution of respective compounds (dissolved in saline). Blood was collected 16 hr later, and the ratio of lymphocytes in the whole blood cells was measured using Siemens Advia 120.

[9] = test system: monocytes in the peripheral blood; test: number of monocytes in peripheral blood, Siemens Advia 120 (Examples 6, 7); settings: 200 μl of 1% solution i.p., blood 16 hr later, vs saline
Procedure: About 3-month-old C57/BL6 mice were intraperitoneally injected with 200 μl of saline (control) or 1% solution of respective compounds (dissolved in saline). Blood was collected 16 hr later, and the number of monocytes in the peripheral blood was measured using Siemens Advia 120.
About 3-month-old C57/BL6 mice were intraperitoneally injected with 200 μl of saline (control) or 1% allyl isothiocyanate solution (dissolved in saline). Blood was collected 16 hr later, and the number of monocytes in the peripheral blood was measured using Siemens Advia 120.

[10] = test system: lymphocytes in the peripheral blood; test: number of lymphocytes in peripheral blood, Siemens Advia 120 (Example 9); settings: 200 μl of 1% solution i.p., blood 16 hr later, vs saline
Procedure: About 3-month-old C57/BL6 mice were intraperitoneally injected with 200 μl of saline (control) or 1% solution of respective compounds (dissolved in saline). Blood was collected 16 hr later, and the number of lymphocytes in the peripheral blood was measured using Siemens Advia 120.

| Compound | number of basophils in the peripheral blood [1] | ratio of neutrophils in the whole blood cells [2] | ratio of basophils in the whole blood cells [3] | neutrophils in the peripheral blood (number) [6] | ratio of monocytes in the whole blood cells [7] | number of monocytes in the peripheral blood [9] | also measured |
| --- | --- | --- | --- | --- | --- | --- | --- |
| Cc1oc2ccccc2c1C [2,3-Dimethylbenzofuran] | increases | increases | increases | – | – | – | – |
| Cc1ccc(C)o1 [2,5-Dimethylfuran] | increases | – | – | – | – | – | – |
| Cc1cccc(C)n1 [2,6-Lutidine] | increases | – | increases | – | – | – | – |
| C[C@]12C[C@H](O)[C@H]3[C@@H](CCC4=CC(=O)CC[C@@]43C)[C@@H]1CC[C@@H]2C(=O)CO [Corticosterone, reference compound] | – | – | – | – | – | – | number of neutrophils [4]: decreased; number of monocytes [5]: did not increase significantly |
| Cc1cncs1 [5-Methylthiazole] | – | increases | – | increase | increases | – | ratio of lymphocytes in the whole blood cells [8]: increases |
| Cc1ccco1 [2-Methylfuran] | increases | – | increases | – | – | – | – |
| CC1OCCC1S (stereo not drawn) [2-Methyl-3-tetrahydrofuranthiol] | increases | – | – | – | increases | increase | – |
| COc1ccc2ncccc2c1 [6-Methoxyquinoline] | increases | increases | increases | increase | increases | increase | – |
| C=CCN=C=S [Allyl isothiocyanate] | – | increases | – | increase | increases | increases | – |
| CC(=O)c1ccc(C)o1 [2-Acetyl-5-methylfuran] | increases | increases | increases | – | – | – | – |
| C1COCCN1 [Morpholine] | – | – | – | increase | – | increase | number of lymphocytes in the peripheral blood [10]: increases |
| O=Cc1cncs1 [5-Formylthiazole] | – | – | – | – | – | – | ratio of lymphocytes in the whole blood cells [8]: increases |
| CC1CCC(C)O1 (stereo not drawn) [2,5-Dimethyltetrahydrofuran] | increases | – | increases | – | increases | – | – |
| CC(=O)c1cccc(C)n1 [2-Acetyl-6-methylpyridine] | – | – | – | – | – | – | number of lymphocytes in the peripheral blood [10]: increases |
| Cc1cccnc1C [2,3-dimethylpyridine] | – | – | – | – | – | – | number of lymphocytes in the peripheral blood [10]: increases |
| SC1=NCCS1 [2-Mercaptothiazoline] | – | increases | increases | increase | increases | increase | – |
| O=S1(=O)CCN(c2ccccc2)CC1 [4-Phenyl-thiomorpholine-1,1-dioxide] | – | – | – | – | – | increase | number of lymphocytes in the peripheral blood [10]: increases |
| (−)-Ambroxide | – | – | – | – | – | – | number of lymphocytes in the peripheral blood [10]: increases |
| Cc1ccc(C)s1 [2,5-Dimethylthiophene] | increases | – | – | increase | – | – | number of lymphocytes in the peripheral blood [10]: increases |
| CCC1CSC(C)=N1 (stereo not drawn) [4-Ethyl-2-methyl-thiazoline] | – | increases | – | increase | increases | – | ratio of lymphocytes in the whole blood cells [8]: increases |
| Cc1nccnc1SCc1ccco1 [2-Furfurylthio-3-methylpyrazine] | – | increases | – | increase | increases | increase | – |
| CC(=O)c1ncc(C)nc1C [2-Acetyl-3,5-dimethy pyrazine] | increases | – | – | – | – | increase | – |
